Experimental data from PMC6001238, “Iterative Chemical Engineering of Vancomycin Leads to Novel Vancomycin Analogs With a High in Vitro Therapeutic Index” (Frontiers in Microbiology, 2018).
≈ marks a conversion by molar mass, not a printed value.

What was measured:
[1] = tested on: E. faecalis VSE 1; test: MIC, broth microdilution, vancomycin-sensitive E. faecalis (VSE 1); assay type: cell-based, Enterococcus faecalis; conditions: for MIC: Enterococcus faecalis VSE 1 (vancomycin-sensitive), read-out: MIC; for MIC-fold improvement vs. vancomycin: VSE 1, ratio of MIC of vancomycin and MIC of analogue
Method in brief: (§1)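 Assayed by broth microdilution under CLSI antimicrobial testing rules. One case paired the analog or control drug with vancomycin at a 10 μM final concentration; water and inoculum-free broth were controls.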

[2] = tested on: E. faecalis VRE 6; test: MIC, broth microdilution, vancomycin-resistant E. faecalis VRE 6 (VanA); assay type: cell-based, Enterococcus faecalis; conditions: for MIC: Enterococcus faecalis VRE 6 (vancomycin-resistant), read-out: MIC; for MIC-fold improvement vs. vancomycin: VRE 6, ratio of MIC of vancomycin and MIC of analogue
Method in brief: as §1

[3] = tested on: E. faecalis VRE 53; test: MIC, broth microdilution, vancomycin-resistant E. faecalis VRE 53 (VanA); assay type: cell-based, Enterococcus faecalis; conditions: for MIC: Enterococcus faecalis VRE 53 (vancomycin-resistant), read-out: MIC; for MIC-fold improvement vs. vancomycin: VRE 53, ratio of MIC of vancomycin and MIC of analogue
Method in brief: as §1

[4] = tested on: E. faecalis VRE 29; test: MIC, broth microdilution, vancomycin-resistant E. faecalis VRE 29 (VanA); assay type: cell-based, Enterococcus faecalis; conditions: for MIC: Enterococcus faecalis VRE 29 (vancomycin-resistant), read-out: MIC; for MIC-fold improvement vs. vancomycin: VRE 29, ratio of MIC of vancomycin and MIC of analogue
Method in brief: as §1

[5] = tested on: E. faecalis VRE 37; test: MIC, broth microdilution, vancomycin-resistant E. faecalis VRE 37 (VanA); assay type: cell-based, Enterococcus faecalis; conditions: for MIC: Enterococcus faecalis VRE 37 (vancomycin-resistant), read-out: MIC; for MIC-fold improvement vs. vancomycin: VRE 37, ratio of MIC of vancomycin and MIC of analogue
Method in brief: as §1

[6] = tested on: Murine leukemia (L1210) cells; test: Cytostatic activity, L1210 cell proliferation; assay type: cell-based; conditions: mean ± SD of three experiments; highest concentration tested 250 µM; 2 days; read-out: Toxicity (IC50) L1210
Method in brief: (§2)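 Suspensions (300,000–500,000 cells/mL) combined with equal volumes of diluted compound; 37°C; L1210 2 d / CEM 3 d / HeLa 4 d; counted by Coulter counter; IC50 vs untreated wells.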

[7] = tested on: human T-lymphocyte (CEM) cells; test: Cytostatic activity, CEM cell proliferation; assay type: cell-based; conditions: mean ± SD of three experiments; highest concentration tested 250 µM; 3 days; read-out: Toxicity (IC50) CEM
Method in brief: as §2

[8] = tested on: human cervix carcinoma (HeLa) cells; test: Cytostatic activity, HeLa cell proliferation; assay type: cell-based; conditions: mean ± SD of three experiments; highest concentration tested 250 µM; 4 days; read-out: Toxicity (IC50) HeLa
Method in brief: as §2

[9] = tested on: L1210, CEM and HeLa cell lines; test: Cytostatic activity, average or summary over L1210, CEM and HeLa; assay type: cell-based; conditions: average of L1210, CEM and HeLa; read-out: Toxicity (IC50) Average
Method in brief: as §2

[10] = tested on: S. aureus VSSA (ATCC 6538); test: MIC, broth microdilution, vancomycin-sensitive S. aureus (VSSA/MSSA, ATCC 6538); assay type: cell-based, Staphylococcus aureus; conditions: for MIC: Staphylococcus aureus VSSA, read-out: MIC; for MIC-fold improvement vs. vancomycin: VSSA, ratio of MIC of vancomycin and MIC of analogue
Method in brief: as §1

[11] = tested on: S. aureus VISA/HIP5827; test: MIC, broth microdilution, vancomycin-intermediate S. aureus VISA HIP5827; assay type: cell-based, Staphylococcus aureus; conditions: for MIC: Staphylococcus aureus VISA/HIP5827, read-out: MIC; for MIC-fold improvement vs. vancomycin: VISA/HIP5827, ratio of MIC of vancomycin and MIC of analogue
Method in brief: as §1

[12] = tested on: S. aureus VRSA; test: MIC, broth microdilution, vancomycin-resistant S. aureus (VRSA); assay type: cell-based, Staphylococcus aureus; conditions: for MIC: Staphylococcus aureus VRSA, read-out: MIC; for MIC-fold improvement vs. vancomycin: VRSA, ratio of MIC of vancomycin and MIC of analogue
Method in brief: as §1

[13] = tested on: MRSA KS2; test: MIC, broth microdilution, MRSA KS2; assay type: cell-based, Staphylococcus aureus; conditions: for MIC-fold improvement vs. vancomycin: MRSA KS2, ratio of MIC of vancomycin and MIC of analogue; for MIC: Staphylococcus aureus MRSA KS2, read-out: MIC
Method in brief: as §1

[14] = tested on: MRSA KS6; test: MIC, broth microdilution, MRSA KS6; assay type: cell-based, Staphylococcus aureus; conditions: for MIC-fold improvement vs. vancomycin: MRSA KS6, ratio of MIC of vancomycin and MIC of analogue; for MIC: Staphylococcus aureus MRSA KS6, read-out: MIC
Method in brief: as §1

[15] = tested on: MRSA KS89; test: MIC, broth microdilution, MRSA KS89; assay type: cell-based, Staphylococcus aureus; conditions: for MIC-fold improvement vs. vancomycin: MRSA KS8, ratio of MIC of vancomycin and MIC of analogue; for MIC: Staphylococcus aureus MRSA KS8, read-out: MIC
Method in brief: as §1

[16] = tested on: MRSA KS1; test: MIC, broth microdilution, MRSA KS1; assay type: cell-based, Staphylococcus aureus; conditions: for MIC-fold improvement vs. vancomycin: MRSA KS1, ratio of MIC of vancomycin and MIC of analogue; for MIC: Staphylococcus aureus MRSA KS1, read-out: MIC
Method in brief: as §1

[17] = tested on: Clostridium difficile ATJ ribotype 014/20; test: MIC, plate drop assay, C. difficile ATJ ribotype 014/20; assay type: cell-based; conditions: C. difficile ATJ ribotype 014/20
Description: (§3) Bacterial lawns of both C. difficile strains were prepared by adding 0.5 mL overnight culture to 8 mL sloppy BHI agar (0.4% agar) supplemented with 1.5 g/L CaCl2⋅2H2O and 81.2 g/L MgCl2⋅6H2O, and pouring the mixture into Petri plates. A twofold dilution series of the selected vancomycin analogs, vancomycin ([…]) and daptomycin (25 μM) was spotted (10 μL) on the bacterial lawn. Spots were air-dried and the plates were incubated overnight at 37°C in an anaerobic cabinet. Ultrapure water was included as negative control. The assay was performed in triplicate. Inhibition was observed by cleared spots.

[18] = tested on: Clostridium difficile AIU ribotype 027; test: MIC, plate drop assay, C. difficile AIU ribotype 027; assay type: cell-based; conditions: for MIC-fold improvement vs. vancomycin: C. difficile AIU ribotype 027
Description: as §3

| Structure (SMILES) | MIC [1] | MIC-fold improvement vs. vancomycin [1] | MIC [2] | MIC-fold improvement vs. vancomycin [2] | MIC [3] | MIC-fold improvement vs. vancomycin [3] | MIC [4] | MIC-fold improvement vs. vancomycin [4] | MIC [5] | IC50 [6] | IC50 [7] | IC50 [8] | IC50 [9] | MIC [10] | MIC-fold improvement vs. vancomycin [10] | MIC [11] | MIC-fold improvement vs. vancomycin [11] | MIC [12] | MIC-fold improvement vs. vancomycin [12] | MIC-fold improvement vs. vancomycin [13] | also measured |
| --- | --- | --- | --- | --- | --- | --- | --- | --- | --- | --- | --- | --- | --- | --- | --- | --- | --- | --- | --- | --- | --- |
| CN[C@H](CC(C)C)C(=O)N[C@H]1C(=O)N[C@@H](CC(N)=O)C(=O)N[C@H]2C(=O)N[C@H]3C(=O)N[C@H](C(=O)N[C@H](C(=O)NCC(=O)Nc4ccc(Nc5ccccc5)cc4)c4cc(O)cc(O)c4-c4cc3ccc4O)[C@H](O)c3ccc(c(Cl)c3)Oc3cc2cc(c3O[C@@H]2O[C@H](CO)[C@@H](O)[C@H](O)[C@H]2O[C@H]2C[C@](C)(N)[C@H](O)[C@H](C)O2)Oc2ccc(cc2Cl)[C@H]1O [Vanc-43] | 0.39 µM (≈ 0.652 µg/mL) | 4 | 1.56 µM (≈ 2.61 µg/mL) | 128 | 25 µM (≈ 41.8 µg/mL) | 16 | 6.25 µM (≈ 10.5 µg/mL) | 64 | 6.25 µM (≈ 10.5 µg/mL) | > 250 µM | > 250 µM | > 250 µM | > 250 µM | 0.39 µM (≈ 0.652 µg/mL) | 2 | 1.56 µM (≈ 2.61 µg/mL) | 4 | 1.56 µM (≈ 2.61 µg/mL) | 64 | 2 | MIC-fold improvement vs. vancomycin [5]: 64; MIC [13]: 0.39 µM (≈ 0.652 µg/mL); MIC-fold improvement vs. vancomycin [14]: 0.25; MIC [14]: 3.13 µM (≈ 5.24 µg/mL); MIC-fold improvement vs. vancomycin [15]: 2; MIC [15]: 0.39 µM (≈ 0.652 µg/mL); MIC-fold improvement vs. vancomycin [16]: 2; MIC [16]: 0.39 µM (≈ 0.652 µg/mL); MIC-fold improvement vs. vancomycin [17]: 22; MIC-fold improvement vs. vancomycin [18]: 29 |
| CNC(CC(C)C)C(=O)NC1C(=O)NC(CC(N)=O)C(=O)NC2C(=O)NC3C(=O)NC(C(=O)NC(C(=O)NCCCNC(=O)c4cc5ccccc5o4)c4cc(O)cc(O)c4-c4cc3ccc4O)C(O)c3ccc(c(Cl)c3)Oc3cc2cc(c3OC2OC(CO)C(O)C(O)C2OC2CC(C)(N)C(O)C(C)O2)Oc2ccc(cc2Cl)C1O (stereo not drawn) [Vanc-25] | 0.39 µM (≈ 0.643 µg/mL) | 4 | 0.78 µM (≈ 1.29 µg/mL) | 256 | 25 µM (≈ 41.2 µg/mL) | 16 | 6.25 µM (≈ 10.3 µg/mL) | 64 | 12.5 µM (≈ 20.6 µg/mL) | > 250 µM | > 250 µM | 98 ± 32 µM | 199 µM | 0.39 µM (≈ 0.643 µg/mL) | 2 | 0.39 µM (≈ 0.643 µg/mL) | 16 | 3.13 µM (≈ 5.16 µg/mL) | 32 | 2 | MIC [13]: 0.39 µM (≈ 0.643 µg/mL); MIC-fold improvement vs. vancomycin [14]: 2; MIC [14]: 0.39 µM (≈ 0.643 µg/mL); MIC-fold improvement vs. vancomycin [15]: 2; MIC [15]: 0.39 µM (≈ 0.643 µg/mL); MIC-fold improvement vs. vancomycin [16]: 2; MIC [16]: 0.39 µM (≈ 0.643 µg/mL); MIC-fold improvement vs. vancomycin [17]: 5.6; MIC-fold improvement vs. vancomycin [18]: 4 |
| CN[C@H](CC(C)C)C(=O)N[C@H]1C(=O)N[C@@H](CC(N)=O)C(=O)N[C@H]2C(=O)N[C@H]3C(=O)N[C@H](C(=O)N[C@H](C(=O)NCC(=O)Nc4ccc(C)cc4)c4cc(O)cc(O)c4-c4cc3ccc4O)[C@H](O)c3ccc(c(Cl)c3)Oc3cc2cc(c3O[C@@H]2O[C@H](CO)[C@@H](O)[C@H](O)[C@H]2O[C@H]2C[C@](C)(N)[C@H](O)[C@H](C)O2)Oc2ccc(cc2Cl)[C@H]1O [Vanc-4] | 0.39 µM (≈ 0.622 µg/mL) | 4 | 3.13 µM (≈ 4.99 µg/mL) | 64 | 6.25 µM (≈ 9.97 µg/mL) | 64 | 6.25 µM (≈ 9.97 µg/mL) | 64 | 6.25 µM (≈ 9.97 µg/mL) | > 250 µM | > 250 µM | > 250 µM | > 250 µM | 0.39 µM (≈ 0.622 µg/mL) | 2 | 0.39 µM (≈ 0.622 µg/mL) | 16 | 6.25 µM (≈ 9.97 µg/mL) | 16 | 4 | MIC-fold improvement vs. vancomycin [5]: 128; MIC [13]: 0.20 µM (≈ 0.319 µg/mL); MIC-fold improvement vs. vancomycin [14]: 2; MIC [14]: 0.39 µM (≈ 0.622 µg/mL); MIC-fold improvement vs. vancomycin [15]: 2; MIC [15]: 0.39 µM (≈ 0.622 µg/mL); MIC-fold improvement vs. vancomycin [16]: 2; MIC [16]: 0.39 µM (≈ 0.622 µg/mL); MIC-fold improvement vs. vancomycin [17]: 5.6; MIC-fold improvement vs. vancomycin [18]: <1.8; MIC ([18]; C. difficile AIU ribotype 027, plate drop assay): >25 µM |
